Reference: ChEMBL document CHEMBL1201862, “PubChem BioAssay data set” (2004)
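96-well plates; 48 h exposure; 5 concentrations. Endpoints by linear interpolation between flanking doses. Not reached: highest tested concentration assigned. Here, GI50 denotes the concentration required for 50% inhibition of growth.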 Activity calls are given as the source filed them. Cut-off read from the data, not from the text of the source: active = GI50 up to about 1.1 µM and inactive = higher.

What was measured:
Experiment in all cases: NCI-60 cell line screen, 48 h
[1] = system: MOLT-4
[2] = system: LXFL 529
[3] = system: OVCAR-8
[4] = system: NCI-H226
[5] = system: CCRF-CEM
[6] = system: NCI-H460
[7] = system: HOP-92
[8] = system: U-251
[9] = system: SK-MEL-2
[10] = system: LOX IMVI
[11] = system: M14
[12] = system: HCT-15
[13] = system: COLO 205
[14] = system: NCI-H522
[15] = system: UO-31
[16] = system: SK-MEL-28
[17] = system: SW-620
[18] = system: EKVX

| Compound | GI50 [1] | GI50 [2] | GI50 [3] | GI50 [4] | GI50 [5] | GI50 [6] | GI50 [7] | GI50 [8] | GI50 [9] | GI50 [10] | GI50 [11] | GI50 [12] | GI50 [13] | GI50 [14] | GI50 [15] | GI50 [16] | GI50 [17] | GI50 [18] |
| --- | --- | --- | --- | --- | --- | --- | --- | --- | --- | --- | --- | --- | --- | --- | --- | --- | --- | --- |
| COc1ccc(C(C#N)NNC(=O)Cc2ccccc2)cc1OC (configuration not stated) | > 100 µM (inactive) | > 100 µM (inactive) | > 100 µM (inactive) | > 100 µM (inactive) | > 100 µM (inactive) | > 100 µM (inactive) | > 100 µM (inactive) | > 100 µM (inactive) | > 100 µM (inactive) | > 100 µM (inactive) | > 100 µM (inactive) | > 100 µM | > 100 µM (inactive) | > 100 µM (inactive) | > 100 µM (inactive) | > 100 µM (inactive) | > 100 µM (inactive) |  |
| Cc1cc2c(c(C(=O)O)c1C)-c1cccc(Cl)c1C2=O | > 100 µM (inactive) | > 100 µM (inactive) | > 100 µM (inactive) | > 100 µM (inactive) | > 100 µM (inactive) | > 100 µM (inactive) |  | > 100 µM (inactive) | > 100 µM (inactive) | > 100 µM (inactive) | > 100 µM (inactive) | > 100 µM | > 100 µM (inactive) | > 100 µM (inactive) | > 100 µM (inactive) | > 100 µM (inactive) | > 100 µM (inactive) | > 100 µM (inactive) |
| CC1(C)OC(COCCOCCCCCO)C(COCCOCCCCCO)O1 (configuration not stated) | > 100 µM (inactive) | > 100 µM (inactive) | > 100 µM (inactive) | > 100 µM (inactive) |  | > 100 µM (inactive) |  | > 100 µM (inactive) | > 100 µM (inactive) | > 100 µM (inactive) | > 100 µM (inactive) | > 100 µM | > 100 µM (inactive) | > 100 µM (inactive) | > 100 µM (inactive) | > 100 µM (inactive) | > 100 µM (inactive) | > 100 µM (inactive) |
| COC(=O)/C(=N/NC(=O)C[N+](C)(C)C)C(C(=O)OC)C(=O)C(=O)Nc1ccc(F)cc1 (configuration not stated) | > 100 µM (inactive) | > 100 µM (inactive) |  | > 100 µM (inactive) | > 100 µM (inactive) | > 100 µM (inactive) |  | > 100 µM (inactive) | > 100 µM (inactive) | > 100 µM (inactive) | > 100 µM (inactive) | > 100 µM | > 100 µM (inactive) | > 100 µM (inactive) | > 100 µM (inactive) | > 100 µM (inactive) | > 100 µM (inactive) | > 100 µM (inactive) |
| COc1ccccc1NC(=O)CC(=O)NNCC(=O)Nc1nnc(-c2ccccc2)o1 | > 100 µM (inactive) | > 100 µM (inactive) | > 100 µM (inactive) | > 100 µM (inactive) |  |  |  | > 100 µM (inactive) | > 100 µM (inactive) | > 100 µM (inactive) | > 100 µM (inactive) | > 100 µM | > 100 µM (inactive) | > 100 µM (inactive) | > 100 µM (inactive) | > 100 µM (inactive) | > 100 µM (inactive) | > 100 µM (inactive) |
| COC(=O)c1ccc(C(=O)OC)c2nc3cc(C)ccc3nc12 | > 100 µM (inactive) | > 100 µM (inactive) | > 100 µM (inactive) | 51.1 µM (inactive) | > 100 µM (inactive) | > 100 µM (inactive) | > 100 µM (inactive) | > 100 µM (inactive) | > 100 µM (inactive) | > 100 µM (inactive) | > 100 µM (inactive) | > 100 µM | > 100 µM (inactive) |  | > 100 µM (inactive) | > 100 µM (inactive) | > 100 µM (inactive) | > 100 µM (inactive) |
| Cc1cc(Cl)ccc1NC(=O)CCCC(=O)C1CCC/C1=N\NC(=O)CC#N (configuration not stated) | > 100 µM (inactive) | > 100 µM (inactive) | > 100 µM (inactive) | > 100 µM (inactive) | > 100 µM (inactive) | > 100 µM (inactive) | > 100 µM (inactive) | > 100 µM (inactive) | > 100 µM (inactive) |  | > 100 µM (inactive) | > 100 µM | > 100 µM (inactive) | > 100 µM (inactive) | > 100 µM (inactive) | > 100 µM (inactive) | > 100 µM (inactive) | > 100 µM (inactive) |
| COC(=O)/C(=N\NC(N)=O)C(C(=O)C=C(C)C)C(=O)C(=O)Nc1ccc(Cl)c(Cl)c1 (configuration not stated) | > 100 µM (inactive) | > 100 µM (inactive) | > 100 µM (inactive) | > 100 µM (inactive) | > 100 µM (inactive) | > 100 µM (inactive) |  | > 100 µM (inactive) | > 100 µM (inactive) | > 100 µM (inactive) | > 100 µM (inactive) | > 100 µM | > 100 µM (inactive) | > 100 µM (inactive) | > 100 µM (inactive) | > 100 µM (inactive) | > 100 µM (inactive) | > 100 µM (inactive) |
| Nc1ccc(C(=O)N/C(=C\c2cccc([N+](=O)[O-])c2)c2nc3cc(Cl)ccc3[nH]2)cc1 | > 100 µM (inactive) | 31 µM (inactive) | > 100 µM (inactive) |  | > 100 µM (inactive) |  | 24.4 µM (inactive) | > 100 µM (inactive) | > 100 µM (inactive) |  | 74.3 µM (inactive) | > 100 µM | > 100 µM (inactive) | > 100 µM (inactive) | 36.1 µM (inactive) | > 100 µM (inactive) | > 100 µM (inactive) | > 100 µM (inactive) |
